These results are taken from patent US5840729A (priority 1995, dated 1998).

For orientation: Ki means the dissociation constant of the complex between target and ligand, obtained from inhibition or displacement. A higher Ki goes with weaker binding.

Like-named read-outs stand apart in the source and are kept apart here.

One test deals with rats. In words: Water maze learning (scopolamine-induced impairment). As to conditions: for effect on scopolamine-induced learning impairment: water maze, summary statement; for reversal of scopolamine-induced impairment: scopolamine 1.2 mg/kg. The test is classed as in vivo, rat. An excerpt: In the water maze spatial learning model, rats are required to use distal spatial cues around a circular water tank to navigate to a hidden platform.
Rats were trained in a 120 -cm diameter water-filled tank to locate a hidden platform submerged just below the surface of the water. The location of the platform remained constant, but for each trial, the animal was required to swim from one of three different starting locations around the edge of the tank. There were no proximal cues in the tank, so the animal had to use a spatial mapping strategy using the distal cues around the room to navigate to the hidden platform. A computerized video tracking system allowed automated acquisition of the data. The animals were given 12 successive training trials during the single training day, using the methods of O. Buresova, et al., Differential Effects Of Cholinergic Blockade On Performance Of Rats In The Water Tank Navigation Task And In A Radial Water Maze, Behavioral Neuroscience, 100, 476-482 (1986). […] After the animal found or was placed on the platform, it was allowed to stay there for 30 seconds. The next trial commenced immediately following the 30 second stay on the platform. Latency to locate the platform was recorded for each trial.
Separate treatment groups of five animals each were run in each experiment. The VEH--VEH groups received vehicle (distilled water plus Tween) i.p. 40 minutes prior to the first trial and vehicle i.p. 20 min. prior to the first trial. The VEH-SCOP groups received vehicle i.p. at 40 minutes and scopolamine HBr i.p. at 20 minutes. The MDL-SCOP groups received (R)-1,3-dipropyl-8-(1-phenylpropyl)-xanthine or 3,7-dihydro-8[(R)-1-methyl-2-phenylethyl]1,3-dipropyl-1H-purine-2,6-dione i.p. at 40 minutes and scopolamine HBr i.p. at 20 minutes.
The latency scores for each animal were averaged into four blocks of three trials each (one trial from each starting location). A one-way ANOVA comparing the treatment groups was computed on the scores for each trial block. If the overall ANOVA was statistically significant, comparisons between individual treatment groups were made with Fisher's PLSD test.

For another test, the system named is hippocampal CA1 neurons. In words: Hippocampal long-term potentiation, in vitro slice (CA1 population spike). The test is classed as cell-based, male Sprague-Dawley rats. The following applies: for LTP stabilized level following tetanus / time course of LTP following tetanus: primed burst tetanus; for population spike before and after induction of LTP: hippocampal CA1 neurons. On the procedure:
Slices were prepared from male Sprague-Dawley rats. […] Briefly, the hippocampus was rapidly and gently dissected over ice. 400 μ Sections were made with a […] tissue chopper and incubated on the interface of 34° C. […] A recording electrode was placed in the CA1 region of the hippocampus and a stimulating electrode was positioned in the stratum radiatum of the CA3 region of this same slice. […] The signal form the CA1 cell body layer was amplified, filtered (1 Hz-4 KHz), and monitored on an oscilloscope. The evoked waveform was also digitized using a Computerscope A/D board (RC Electronics, Inc., Santa Barbara, Calif.) and stored for analysis using Neuroscope software (Levin and Associates, Denver, Colo.) running on an IBM-AT. In order to insure the viability of the slice, "minimal viability criteria" were established. […] Only preparations that met these three criteria were used. Twenty or more control population spikes were obtained to establish a baseline (at least 10 minutes). In most slices concentrated drug solutions were then diluted into the media for a 20 minute period to establish effects on the baseline population spike. […] One 100 μsec pulse was followed by 4 similar pulses 170, 180, 190, 200 msec later. Drug superfusion was continuous throughout the experiment. […] The compounds were dissolved in DMSO and diluted 1:400 into the perfusion media. […] Each pop spike waveform was digitized, stored, and analyzed by the Neuroscope software. Pop spike amplitude was determined for each waveform and these amplitudes were normalized to pre-tetanus levels. Results were expressed as percent change from this control level and plotted vs. time.

Test [1] concerns animal models of learning and memory. As to conditions: G. Schingnitz et al. 1991; cited from earlier work.
The target in a further test is T1, adenosine A2 receptor (Rattus norvegicus, UniProt P30543).
T1 construct: tissue Charles River (animals); host or cells: striatal membranes of young male rats (C-D strain)
In words: A2 receptor affinity: displacement of [3H]NECA binding in rat brain striatum membranes. As to conditions: Table 1. The procedure: See R. R. Bruns, et al., Characterization of the A-2Adenosine Receptor Labeled by [3H]NECA in Rat Striatal Membranes, Mol. Pharmacol., 29, 331-346 (1986). Young male rats (C-D strain), obtained from Charles River, were killed by decapitation and the brain was removed. Membranes for ligand binding were isolated from rat brain striatum. The tissue was homogenized in 20 vol ice-cold 50 mM Tris-HC1 buffer (pH 7.7) using a polytron (setting for 6 to 20 seconds). The homogenate was centrifuged at 50,000×g for 10 minutes at 4° C. The pellet was again homogenized in a polytron in 20 vol of buffer, and centrifuged as before. The pellet was finally resuspended in 40 vol of 50 mM Tris-HC1 (pH 7.7) per gram of original wet weight of tissue.
Incubations were carried out at 25° C. for 60 minutes. Each tube was filtered through GF/B glass fiber filters using a vacuum. The filters were rinsed two times with 5 ml of the ice-cold buffer. […] The filters were counted by liquid scintillation spectrometry.
Specific binding of [^3 H]NECA was measured as the excess over blanks run in the presence of 100 μM 2-chloroadenosine. Total membrane-bound radioactivity was about 2.5% of that added to the test tubes. […] Specific binding to membranes was about 50% of the total bound.
Background: Displacement assays read how much labelled ligand stays bound in the presence of the test substance.

The target in test [2] is T2, adenosine A1 receptor (Rattus norvegicus, UniProt P25099).
T2 sequence (P25099 1-326): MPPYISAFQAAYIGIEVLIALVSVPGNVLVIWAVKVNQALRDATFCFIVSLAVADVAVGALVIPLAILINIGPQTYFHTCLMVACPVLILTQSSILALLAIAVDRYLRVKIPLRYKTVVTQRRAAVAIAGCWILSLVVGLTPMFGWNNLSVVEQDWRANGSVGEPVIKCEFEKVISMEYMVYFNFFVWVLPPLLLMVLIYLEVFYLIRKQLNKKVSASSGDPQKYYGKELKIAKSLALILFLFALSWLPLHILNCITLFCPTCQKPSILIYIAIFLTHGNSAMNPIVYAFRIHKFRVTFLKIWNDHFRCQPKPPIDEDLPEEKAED
Set-up: Male Sprague-Dawley rats were sacrificed by decapitation and the membranes were isolated from whole animal brains; from tissue; host or cells: whole brain membranes of male Sprague-Dawley rats. As to conditions: Dudley et al., 1992; Secrest et al.; cited from earlier work.

The target in test [3] is T2, adenosine A1 receptor.
Test [4] has as its target T2, adenosine A1 receptor. In words: A1 receptor affinity: displacement of [3H]cyclohexyladenosine binding in rat brain membranes. As to conditions: Table 1; ratio of A2 Ki to A1 Ki (selectivity).
The test system of test [5] is isolated guinea pig trachea. The test can be described thus: Isolated guinea pig trachea, contraction produced by N6-cyclohexyl-adenosine. The test is classed as cell-based.
Test [6] deals with Type IV phosphodiesterase. The test can be described thus: Type IV phosphodiesterase activity. It counts as biochemical.
Test [7] has as its system Type III phosphodiesterase. In words: Type III phosphodiesterase activity. It counts as biochemical.
A further test has as its system A1 receptor. The test can be described thus: A1 receptor mediated decrease in heart rate produced by adenosine in the anesthetized guinea pig. The test is classed as in vivo.
Test [8] has as its target T2, adenosine A1 receptor. In words: biochemical.

T1 sequence (P30543 whole entry): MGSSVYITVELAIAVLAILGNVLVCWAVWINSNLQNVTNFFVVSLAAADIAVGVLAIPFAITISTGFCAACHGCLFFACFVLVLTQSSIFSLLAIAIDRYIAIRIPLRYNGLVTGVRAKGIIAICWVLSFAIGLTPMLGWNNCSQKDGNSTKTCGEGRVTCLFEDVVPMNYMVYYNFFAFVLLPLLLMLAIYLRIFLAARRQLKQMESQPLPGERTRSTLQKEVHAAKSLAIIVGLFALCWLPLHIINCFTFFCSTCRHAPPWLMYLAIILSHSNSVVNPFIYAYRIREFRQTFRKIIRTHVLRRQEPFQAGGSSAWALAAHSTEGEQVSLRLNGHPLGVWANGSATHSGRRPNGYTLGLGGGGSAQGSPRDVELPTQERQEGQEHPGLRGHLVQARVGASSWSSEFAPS

In the case of `CCCn1c(=O)c2[nH]c(C3CCC(=O)C3)nc2n(CCC)c1=O` (racemic) [KFM-19, reference compound], in the test with rats, the “effect on scopolamine-induced learning impairment” value is given as “significantly antagonized”. Besides, the “synaptic transmission in the hippocampal slice” value (“synaptic transmission” below) with hippocampal CA1 neurons was “enhanced synaptic transmission”. In addition, in [1], the “activity in other animal models of learning and memory” value is reported as “reported to have activity”.
`CCCn1c(=O)c2nc(C(C)c3ccccc3)[nH]c2n(CCC)c1=O` (racemic) [3,7-dihydro-8-(1-phenylethyl)-1,3-dipropyl-1H-purine-2,6-dione] gave an inhibition constant (Ki) on adenosine A2 receptor of 4.9 µM.
With `CCCn1c(=O)c2[nH]c([C@H](CC)c3ccccc3)nc2n(CCC)c1=O` [3,7-dihydro-8-[(R)-1-phenylpropyl]1,3-dipropyl-1H-purine-2,6-dione], on adenosine A1 receptor [2], the “A1 antagonist potency and selectivity” value is “potent and selective A1 antagonists”. This compound also came in with a Ki at adenosine A2 receptor of 3.51 µM. The inhibition constant Ki on adenosine A1 receptor [3] was found to be 0.0232 µM. In addition, in the test on rats (5 mg/kg i.p. plus scopolamine 1.2 mg/kg, p<0.05), the “difference from VEH-SCOP group (latency), block 3” value is listed as “differed from the VEH-SCOP group on block 3 (p<0.05)”. In addition, in the test with rats (5 mg/kg i.p.), the “reversal of scopolamine-induced impairment” value was “reversed the scopolamine-induced impairment”. For the same compound, the “difference from VEH-SCOP group (latency), blocks 2 and 3” value with rats (25 mg/kg i.p. plus scopolamine 1.2 mg/kg) is “differed from the VEH-SCOP group on blocks 2 and 3”. In addition, the “reversal of scopolamine-induced impairment” value in the test with rats (25 mg/kg i.p.) was “reversed the scopolamine-induced impairment”. The “difference from VEH-VEH group (latency)” value with rats (5 and 25 mg/kg i.p. plus scopolamine 1.2 mg/kg) was “did not differ significantly from the VEH--VEH group”. The “effect on scopolamine-induced learning impairment” value in the test with rats was “significantly antagonized”. In the test with hippocampal CA1 neurons, the “synaptic transmission” value is reported as “enhanced synaptic transmission”; the “population spike before and after induction of LTP” value is “increased the basal population spike before and after induction of LTP”; the “time course of LTP following tetanus” value is “rose sharply and remained stable throughout the observation period”. For the same compound, the “LTP stabilized level following tetanus” value in the test on hippocampal CA1 neurons (2.5 μm) worked out at 270%. The A2/A1 on adenosine A1 receptor [4] was 153.
In turn, `CCCn1c(=O)c2nc(C(CC)Cc3ccccc3)[nH]c2n(CCC)c1=O` (racemic) [3,7-dihydro-8-[1-(phenylmethyl)propyl]-1,3-dipropyl-1H-purine-2,6-dione] had a Ki at adenosine A2 receptor of 1.23 µM.
Same read-out and setting: in the case of `CCCn1c(=O)c2[nH]c(C3Cc4ccccc4C3)nc2n(CCC)c1=O` (racemic) [3,7-Dihydro-8-(2-indanyl)-1,3-dipropyl-1H-purine-2,6-dione] it was 8.35 µM.
`CCCn1c(=O)c2[nH]c([C@H](C)Cc3ccccc3)nc2n(CCC)c1=O` [3,7-Dihydro-8-[(R)-1-methyl-2-phenylethyl]-1,3-dipropyl-1H-purine-2,6-dione]: the “difference from VEH-VEH group (latency)” value with rats (25 mg/kg i.p. plus scopolamine […]) was “did not differ significantly from the VEH--VEH group”. For the same compound, the “reversal of scopolamine-induced impairment of water maze learning” value with rats (25 mg/kg i.p., scopolamine […]) is “partially reversed”. Moreover, the “effect on scopolamine-induced learning impairment” value in the test with rats is recorded as “significantly antagonized”. Besides, in test [5], the “effect on contraction produced by N6-cyclohexyl-adenosine” value is “very little effect”. Also, in the test with hippocampal CA1 neurons, the “synaptic transmission” value is on record as “enhanced synaptic transmission”; the “population spike before and after induction of LTP” value was “increased the basal population spike before and after induction of LTP”; the “time course of LTP following tetanus” value is “rose sharply and remained stable throughout the observation period”. Also, in the test with hippocampal CA1 neurons (5 μM), the “LTP stabilized level following tetanus” value stood at 216%. For the same compound, the “effect on Type IV phosphodiesterase activity” value in test [6] is “little effect”. The “effect on Type III phosphodiesterase activity” value in test [7] was “little effect”. Also, the “reversal of A1 receptor mediated decrease in heart rate produced by adenosine” value in the test with A1 receptor was “completely reversed”.
On to `CN1[C@@H]2C[C@@H](OC(=O)[C@H](CO)c3ccccc3)C[C@H]1[C@@H]1O[C@@H]12` [scopolamine, reference compound], for which, in the test on rats (scopolamine 1.2 mg/kg i.p., p<0.05), the “VEH-SCOP group versus VEH-VEH group (latency)” value is reported as “differed significantly from the VEH--VEH group (p<0.05)”. For the same compound, the “impairment of acquisition of the water maze task” value in the test with rats (scopolamine, dose-dependent) is reported as “dose-dependently impairs acquisition of the water maze task”.
On to `CCCn1c(=O)c2nc([C@@H](C)c3ccccc3)[nH]c2n(CCC)c1=O` [3,7-Dihydro-8-[(S)-1-phenylethyl]-1,3-dipropyl-1H-purine-2,6-dione], for which the Ki at adenosine A2 receptor came to 12.9 µM.
As for `CCCn1c(=O)c2[nH]c([C@@H](CC)c3ccccc3)nc2n(CCC)c1=O` [3,7-Dihydro-8-[(S)-1-phenylpropyl]1,3-dipropyl-1H-purine-2,6-dione], the inhibition constant (Ki) at adenosine A2 receptor came to 0.848 µM; on adenosine A1 receptor [8], 0.0607 µM. On adenosine A1 receptor [3], this compound came in with an A2/A1 of 14.
On adenosine A1 receptor [3], `CCCn1c(=O)c2[nH]c(C(CC)c3ccccc3)nc2n(CCC)c1=O` (racemic) [3,7-dihydro-8-[(±)-phenylpropyl]-1,3-dipropyl-1H-purine-2,6-dione] returned an A2/A1 of 20.
On adenosine A2 receptor, `CCCn1c(=O)c2nc([C@H](C)c3ccccc3)[nH]c2n(CCC)c1=O` [3,7-Dihydro-8-[(R)-1-phenylethyl]-1,3-dipropyl-1H-purine-2,6-dione] had an inhibition constant (Ki) of 4.22 µM.
At adenosine A2 receptor, `CCCn1c(=O)c2nc(C(CO)Cc3ccccc3)[nH]c2n(CCC)c1=O` (racemic) [3,7-dihydro-8-[l-(hydroxymethyl)-2-phenylethyl]-1,3-dipropyl-1H-purine-2,6-dione] returned a Ki of 12.8 µM.
